Reference: patent publication US10870832B2, “Use of small molecules to enhance MAFA expression in pancreatic endocrine cells” (Janssen Biotech, Inc., priority 2014, dated 2020)

What was measured:
Format in all cases: cell-based, human
[1] = tested on: MAFA expression; assay: Stage 7 treatment, real-time PCR of MAFA (Example 7); conditions: Stage 7, day 14, 2 μM R428 or 2-5 μM inhibitor substituted for R428, H1-derived cells, mRNA
Method: (§1) Cells of the human embryonic stem cell line H1 (WA01) were seeded as single cells at 1×10^5 cells/cm^2 on MATRIGEL™ (1:30 dilution) coated dishes in E8 media. At about 70 to 80% confluency, the cultures were washed in 1× incomplete DPBS followed by incubation with 1× TrypLE™ Express Enzyme for 3 to 5 minutes at 37° C. The released cells were rinsed with E8 and spun at 1000 rpm for 5 minutes. The resulting cell pellet was resuspended in E8 supplemented with 10 μM Y-27632 and the single cell suspension was seeded at approximately 1.3 to 1.5×10^5 cells/cm^2. The cultures were fed every day with E8 medium and differentiation, according to the following protocol, was initiated 48 hrs. following seeding resulting in an about 90% starting confluency.
Stage 6 cells were cultured for fourteen days in BLAR medium supplemented with a 1:100 dilution of ITS-X; 20 mM glucose (final); 1.5 g/L sodium bicarbonate; 2% FAF-BSA; 10 μg/ml of heparin, 10 μM ZnSO4, 1 μM T3 as 3,3′, 5-triiodo-L-thyronine sodium salt, 10 μM ALK5 inhibitor II, 1 mM N-acetyl cysteine. Some cultures also included one of 2 μM R428, 2-5 μM RSK inhibitor II (2-(3,5-Difluoro-4-hydroxy-anilino)-8-isopentyl-5,7-dimethyl-7H-pteridin-6-one) (EMD Millipore; Catalog No, 559286-5MG), 2-5 μM aurora kinase inhibitor II (EMD Millipore, or a combination of 2-5 μM RSK inhibitor II and 2-5 μM aurora kinase II inhibitor.
At Stage 7, day 14, mRNA was collected and compared to undifferentiated human stem cells.

[2] = tested on: MAFA expression; assay: Small molecule screen at Stage 6 or 7, real-time PCR (Example 2); conditions: added at Stage 6, 1 μM, H1-derived cells at air-liquid interface
Method: Cells of the human embryonic stem cell line H1 (WA01) at passage 42 were seeded as single cells at 1×10^5 cells/cm^2 on MATRIGEL™ (1:30 dilution)-coated dishes in a media comprising of DMEM-F12, GlutaMAX™ (1:100 dilution), 0.25 mM ascorbic acid, 100 ng/ml of FGF2 (R & D systems, MN), 1 ng/ml of TGF-β, ITS-X (1:100 dilution), 2% FAF-BSA, and 20 ng/ml of IGF-1, supplemented with 10 μM of Y-27632. Forty-eight hours post-seeding, the cultures were washed in incomplete PBS (phosphate buffered saline without Mg or Ca) followed by incubation with 1× TrypLE™ Express Enzyme (Life Science; Catalog No. 14190) for 3 to 5 minutes at 37° C. The released cells were rinsed with DMEM-F12 and spun at 1000 rpm for 5 minutes. The resulting cell pellet was resuspended in DMEM-F12 supplemented with 10 μM Y-27632, 1× GlutaMAX™, 0.25 mM ascorbic acid, 100 ng/ml FGF2, 1 ng/ml TGF-β, ITS-X at a 1:100 dilution, 2% FAF-BSA and 20 ng/ml of IGF-1 and the single cell suspension was seeded at approximately 1.3 to 1.5×10^5 cells/cm^2. The cultures were fed every day with medium and differentiation, according to the following protocol, was initiated 48 hours following seeding resulting in an about 90% starting confluency. […]
At Stages 6 or 7, various small molecules were added and their effect was evaluated by real-time PCR.

[3] = tested on: MAFA expression; assay: Stage 7 treatment, real-time PCR of MAFA (Example 6); conditions: Stage 7, day 7, 2 μM in Stage 7 medium, H1-derived cells, mRNA
Method: as §1, with “TrypLET™” for “TrypLE™”
(§2) Stage 6 cells were cultured for seven days in BLAR medium supplemented with a 1:100 dilution of ITS-X; 20 mM glucose (final); 1.5 g/L sodium bicarbonate; 2% FAF-BSA; 10 μg/ml of heparin, 10 μM ZnSO4, 1 μM T3 as 3,3′, 5-triiodo-L-thyronine sodium salt, 10 μM ALK5 inhibitor II, 1 mM N-acetyl cysteine. […]
(§3) At Stage 7, day 7, mRNA was collected and expression of MAFA, UCN3, PDX1, NKX6.1, insulin and G6PC2 evaluated as compared to undifferentiated human stem cells. […]

[4] = tested on: UCN3 expression; assay: Stage 7 treatment, real-time PCR of UCN3 (Example 6); conditions: Stage 7, day 7, 2 μM in Stage 7 medium, H1-derived cells, mRNA
Method: as §1, with “TrypLET™” for “TrypLE™”
as §2, §3

[5] = tested on: G6PC2 expression; assay: Stage 7 treatment, real-time PCR of G6PC2 (Example 6); conditions: Stage 7, day 7, 2 μM in Stage 7 medium, H1-derived cells, mRNA
Method: as §1, with “TrypLET™” for “TrypLE™”
as §2, §3

CC(C)CCN1c2nc(Nc3cc(F)c(O)c(F)c3)ncc2N(C)C(=O)C1C (racemic) [RSK inhibitor, 2-(3,5-Difluoro-4-hydroxy-anilino)-8-isopentyl-5,7-dimethyl-7H-pteridin-6-one]
MAFA expression [1]: restored MAFA expression

CC(C)N(C[C@H]1O[C@@H](n2cnc3c(N)ncnc32)[C@H](O)[C@@H]1O)[C@H]1C[C@@H](CCc2nc3ccc(C(C)(C)C)cc3[nH]2)C1 [EPZ-5676, 9H-Purin-6-amine, 9-[5-deoxy-5-[[cis-3-[2-[6-(1,1-dimethylethyl)-1H-benzimidazol-2-yl]ethyl]cyclobutyl](1-methylethyl)amino]-β-D-ribofuranosyl]-]
expression of MAFA as compared to untreated cultures [2]: significantly upregulated

COc1cc2ncnc(Nc3ccc(NC(=O)c4ccccc4)cc3)c2cc1OC [aurora kinase inhibitor II, 4-(4′-Benzamidoanilino)-6,7-dimethoxyquinazoline]
MAFA expression [3]: increase in MAFA expression
UCN3 expression [4]: maintenance of UCN3 and G6PC2 expression
G6PC2 expression [5]: maintenance of UCN3 and G6PC2 expression
MAFA expression [1]: restored MAFA expression
